According to the NIST ThermoML archive (doi:10.1016/j.fluid.2014.12.001):
Numbers after ± are expanded uncertainties.

How the values were obtained:
[1] = Molar enthalpy of transition or fusion; settings: Crystal; DSC
[2] = Crystal; visual observation

Row | Structure (SMILES) | Molar enthalpy of transition or fusion [1] | Normal melting temperature [2]
1 | Oc1cccc2ccccc12 [1-naphthol] | 5.2 ± 0.237 kcal/mol | 95.10 ± 1.1 °C
2 | Nc1ccccc1[N+](=O)[O-] [2-nitroaniline] | 4.6 ± 0.21 kcal/mol | 69.7 ± 1.1 °C
